According to the supplement of paper PMC11061612:

Tests used:
42-MG-BA (Glioblastoma) = test: Bliss excess, mean over the matrix (fraction); higher = more synergy
How it was run: (§1)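 Cell lines grown in DMEM/F12 or RPMI with 10% FBS were plated in 1536-well plates and held 24 hours at 37°C, 5% CO2 before 72 hours of exposure to two-drug dose matrices, with DMSO typically at 0.2%. CellTiter-Glo 2.0 luminescence gave viability, which was converted to inhibition. Vehicle wells were set to 0 and blank wells to 1. Combination Emax is the second-highest inhibition in the matrix, and Bliss excess is the observed combination effect minus the expected EA + EB − EA·EB, where EA and EB are the single-agent effects.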

[1] = test system: CAL-148 (Breast Carcinoma); test: as above
How it was run: as §1

ES4 (Ewing's Sarcoma) = test: as above
How it was run: as §1

[2] = test system: HCC1806 (Breast Carcinoma); test: as above
How it was run: as §1

[3] = test system: HuP-T4 (Pancreatic Carcinoma); test: as above
How it was run: as §1

[4] = test system: LS-180 (Colorectal Carcinoma); test: as above
How it was run: as §1

[5] = test system: MDA-MB-361 (Breast Carcinoma); test: as above
How it was run: as §1

[6] = test system: NCI-H1869 (Non-Small Cell Lung Carcinoma); test: as above
How it was run: as §1

[7] = test system: NCI-H2085 (Non-Small Cell Lung Carcinoma); test: as above
How it was run: as §1

[8] = test system: NCI-H82 (Small Cell Lung Carcinoma); test: as above
How it was run: as §1

[9] = test system: SK-ES-1 (Ewing's Sarcoma); test: as above
How it was run: as §1

[10] = test system: TE-15 (Esophageal Squamous Cell Carcinoma); test: as above
How it was run: as §1

[11] = test system: UM-UC-3 (Bladder Carcinoma); test: as above
How it was run: as §1

[12] = test system: NCI-H1869 (Non-Small Cell Lung Carcinoma); test: combination Emax (second highest fraction inhibited in the dose matrix, 72 h); higher = more inhibition; extreme values may be limits of the assay
How it was run: as §1
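Wherever Bliss excess, mean over the matrix is given: after 72 h of two-drug dosing.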

**Q.** What does the source list for C=CCn1c(=O)c2cnc(Nc3ccc(N4CCN(C)CC4)cc3)nc2n1-c1cccc(C(C)(C)O)n1 [AZD1775] + C1CN(CCC1(C(=O)N[C@@H](CCO)C2=CC=C(C=C2)Cl)N)C3=NC=NC4=C3C=CN4 [Capivasertib] (first compound max 3 µM, partner max 3 µM)?
**A.** Bliss excess (42-MG-BA (Glioblastoma)): -0.0419; Bliss excess [1]: -0.0405; Bliss excess (ES4 (Ewing's Sarcoma)): 0.0691; Bliss excess [2]: 0.0151; Bliss excess [3]: -0.0779; Bliss excess [4]: -0.0513; Bliss excess [5]: -0.0156; Bliss excess [6]: 0.0342; Bliss excess [7]: 0.0047; Bliss excess [8]: 0.003; Bliss excess [9]: 0.0726; Bliss excess [10]: 0.0494; Bliss excess [11]: 0.0405; combination Emax [12]: 0.388
